One series has as its system MCF7 breast cancer cells. The series is described as follows: Cell growth monitored by xCELLigence System. It counts as cell-based. Particulars: FIG. 9. The protocol: An in vitro evaluation of the effect of ST3Gal1 siRNA (to knock down ST3Gal1 expression) and anti-cancer agent was performed using breast cancer cells.
MCF7 breast cancer cells were treated with one of the regimes in Table 2 and cell growth was monistored by xCELLigence System (ACEA Biosciences, Inc., USA)

Series [1] concerns the target CD55 from MDA-MB-231 breast cancer cells transfected with ST3Gal1 siRNA (UniProt P08174). As to the kind of experiment: CD55 signal in PNA precipitate of lysate, ST3Gal1 siRNA cells against scramble siRNA cells.
The test system of a further series is ST3Gal1 mRNA. As to the kind of experiment: ST3Gal1 mRNA expression by qPCR, normalized to GAPDH mRNA. The series is classed as cell-based. Particulars: MDA-MB-231 breast cancer cells; for expression of ST3Gal1 RNA compared to sc RNA, siRNA-A or pVoid transfected cells: FIG. 8A-8C. The protocol: MDA-MB-231 breast cancer cells (available from Bioresource Collection and Research Center, Taiwan) were transfected with scramble siRNA (sc) or ST3Gal1 (si) siRNA with an antisense strand (SEQ ID NO:2) and a sense strand (SEQ ID NO:3). The expression levels of the ST3Gal1 mRNA were analyzed by qPCR analysis and normalized to GAPDH mRNA levels.
MDA-MB-231 breast cancer cells were transfected with scramble siRNA (sc), a vector without shRNA (pVoid), shRNA1-3 (SEQ ID NO:11), shRNA 1-4 (SEQ ID NO:12), or the siRNA listed in Table 1 below:
The expression levels of the ST3Gal1 mRNA were analyzed by qPCR analysis and normalized to GAPDH mRNA levels.
A general note: Real-time PCR tracks product formation cycle by cycle.

The subject of series [2] is CD55. The series is described as follows: PNA lectin blot / PNA precipitation of cell lysates with mass spectrometry and CD55 blot. Particulars: breast cancer cells. It counts as cell-based. The method, then: To examine the protein target of ST3Gal1 in breast cancer cells, total cell lysates from scramble or ST3Gal1 siRNA treated breast cancer cells were prepared for PNA lectin blot analysis after precipitation with agarose bound PNA. ST3Gal1 catalyzes the sialylation of galactosyl (β-1, 3) N-acetylgalactosamine, by adding sialic acid to Core 1 O-glycans. Since Peanut agglutinin (PNA) binds preferentially to Core 1 O-glycans (without the added sialic acid), ST3Gal1 knock down is expected to increase PNA binding to Core 1 O-glycans.
As expected, PNA-binding signals in breast cancer cells increased at about 72, 130 and 250 kDa molecular weight, after ST3Gal1 knock down (FIG. 1B). Using in-gel digestion and LTQ-FTD MASS spectrometry, CD55 was identified as one of the PNA-binding proteins with increased signal (by 2.6 folds) after ST3Gal1 knock down and the molecular weight of CD55 is slightly lower in ST3Gal1 silenced cells (FIG. 1C). However, the total CD55 protein levels remained similar (sc vs. si: 1.0 vs. 1.1) (FIG. 1D).

Series [3] relates to C3 deposit on breast cancer cells. As to the kind of experiment: C3 deposition on cancer cell surface by flow cytometry with anti-C3 antibody. The series is classed as cell-based. To be noted: human serum, non-lytic conditions. The method, then:
An in vitro evaluation was performed to assess the decay-accelerating ability of ST3Gal1 silenced breast cancer cells with de-sialylated CD55, by measuring the deposition of C3 fragments on the cancer cell surface.
Breast cancer cells were incubated under non-lytic conditions with human serum and deposited C3 were detected by flow cytometric analysis using anti-C3 antibody. […] There is minimal C3 deposit in both scramble RNA (sc) and ST3Gal1 siRNA (si) transfected breast cancer cells in the absence of anti-HLA antibody (geometric mean fluorescence: sc, 31.5±0.2×10^3; si, 35.2±0.6×10^3).
For orientation: In flow cytometry, cells or beads pass a laser one at a time.

In another series the test system is MDA-MB-231 cells. The series is described as follows: ADCC assay with human PBMC effectors and anti-SSEA4 antibody. It counts as cell-based. To be noted: anti-SSEA4 antibody, Effector:Target ratio 10:1. The method, then: (§1) MDA-MB-231 breast cancer cells were transfected with scramble RNA (sc) or ST3Gal1 siRNA (si) according to Example 1. After four days, cells were collected and analyzed for the expression of membrane complement regulatory proteins (mCRPs) and target antigen by fluorescence-activated cell sorting (FACS). There was no change in the expression levels of mCRPs (CD46, CD55, and CD59) and target antigens (HLA and SSEA4) with ST3Gal1 silencing.
ADCC assay was performed using human PBMC cells as effectors, anti-SSEA4 as antibody, and ST3Gal1siRNA transfected MDA-MB-231 cells as targets. […] The mean percentages of lysis are 24.2±1.7% and 41.5±2.4% for sc and si, respectively at Effector:Target ratio of 10:1 ratio (E/T10), and the difference is statistically significant.

The test system of series [4] is Prostate cancer cells (PC3). As to the kind of experiment: AlamarBlue cell proliferation assay. The series is classed as cell-based. Particulars: fluorescence 590 nm, FIG. 7A. The method, then: (§2) Prostate cancer cells (PC3, Bioresource Collection and Research Center, Taiwan) and neuroblastoma cells (SH-SY5Y, obtained from Professor Yi-Cheng Chen, Mackay Medical College, Taiwan) were transfected with a scramble RNA (sc) or ST3Gal1 siRNA (si) according to Example 1. The cell proliferation was determined by AlamarBlue assay using Victor X3 plate reader to measure the fluorescence (590 nm) that was used to present the level of cell proliferation.

The subject of series [5] is neuroblastoma cells (SH-SY5Y). The series is described as follows: AlamarBlue cell proliferation assay. The series is classed as cell-based. To be noted: fluorescence 590 nm, FIG. 7B. The protocol: as §2
On the technique in general: Alamar Blue is a resazurin reagent that responds to reducing activity.

Series [6] has as its system CD55. As to the kind of experiment: LC-MS/MS analysis of released, permethylated O-glycans of CD55. Particulars: ST3Gal1 silenced vs sc transfected breast cancer cells. The source says:
The bi- and tri-antennary structures were all detected as glycoforms of the expected tryptic peptide […], previously reported as the single N-linked glycosylation site. […] The sialylation of core 1 and core 2 O-glycan on CD55 regulates the activity of CD55.
Impairment of 2-3-sialylation of the O-glycans of the CD55 molecule increases non-sialylated core 1 and monosialylated core 2, at the expenses of disialylated core 2 structure. On the other hand, the relative amount of the monosialylated core 1 O-glycan of the CD55 molecule (m/z 895.462) was similar in ST3Gal1 silenced and sc transfected breast cancer cells, probably due to compensation of 2-6-sialylation.

The next series has as its system CD46 and CD59. As to the kind of experiment: Western blot of CDC regulatory proteins. It counts as cell-based. To be noted: breast cancer cells; FIG. 2B. From the text:
In addition, the expression levels of CD46 or CD59 were unaffected in breast cancer cells transfected with ST3Gal1 siRNA.

The subject of series [7] is mCRPs (CD46, CD55, and CD59) and target antigens (HLA and SSEA4). The series is described as follows: FACS expression of membrane complement regulatory proteins and target antigens. Particulars: MDA-MB-231, four days after transfection. It counts as cell-based.
Text: as §1

Sequence of UniProt P08174 (P08174 35-353 limits assumed): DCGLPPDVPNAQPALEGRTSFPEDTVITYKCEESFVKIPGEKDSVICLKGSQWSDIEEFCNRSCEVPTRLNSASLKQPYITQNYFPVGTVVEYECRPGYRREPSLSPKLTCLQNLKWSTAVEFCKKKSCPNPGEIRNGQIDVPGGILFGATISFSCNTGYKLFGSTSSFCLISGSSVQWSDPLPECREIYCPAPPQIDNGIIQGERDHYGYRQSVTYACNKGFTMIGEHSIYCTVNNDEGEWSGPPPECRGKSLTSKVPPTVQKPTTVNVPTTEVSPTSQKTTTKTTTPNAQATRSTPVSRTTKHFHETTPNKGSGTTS

As for `CC/C(=C(\c1ccccc1)c1ccc(OCCN(C)C)cc1)c1ccccc1` [tamoxifen], in the series on MCF7 breast cancer cells, the Cancer cell viability came to 76%.

In turn, `COc1cc2c(Nc3ccc(Br)cc3F)ncnc2cc1OCC1CCN(C)CC1` [vandetanib] returned a Cancer cell viability in the series with MCF7 breast cancer cells of 37.5%.

In turn, “Peanut agglutinin (PNA) (from UniProt P02872 24-259)” displayed a fold increase of signal after ST3Gal1 knock down (against scramble siRNA cells) in series [1] of 2.6 fold.

For the compound “ST3Gal1 siRNA: ST3Gal1 siRNA with an antisense strand (SEQ ID NO:2) and a sense strand (SEQ ID NO:3) (sense CCGGUUCCUGCAAAGAUCAGAGUGA; antisense UCACUCUGAUCUUUGCAGGAACCGG; listed as RNA, chemistry not given here)”, in the series on ST3Gal1 mRNA (normalized to GAPDH mRNA), the “expression of ST3Gal1 RNA, % of that of sc transfected breast cancer cells” value is on record as 28.5±8.2%. Besides, the “increase of CD55 PNA-binding signal after ST3Gal1 knock down” value in the series on CD55 [2] (FIG. 1C) amounted to 2.6 folds. In the series with CD55 [2] (FIG. 1D), the “total CD55 protein levels (sc = 1.0)” value is 1.1. For the same compound, the “C3 deposit, geometric mean fluorescence” value in series [3] (10 μg/ml anti-HLA antibody) is reported as 89.5±5.5×10^3; in [3] (25 μg/ml anti-HLA antibody) it was 164.8±0.8×10^3; in series [3] (absence of anti-HLA antibody), 35.2±0.6×10^3. Besides, the “mean percentage of lysis (ADCC)” value with MDA-MB-231 cells was determined as 41.5±2.4%. Besides, the “proliferation of prostate cancer cells compared to sc RNA” value in series [4] is “significantly reduced”. Also, the “proliferation of neuroblastoma cells compared to sc RNA” value in series [5] is “significantly reduced”. Besides, the Cancer cell viability in the series with MCF7 breast cancer cells was 65%. In the series with CD55 [6], the “relative amount of monosialylated core 1 O-glycan of CD55 (m/z 895.462)” value is on record as “similar”. In addition, the “relative amount of disialylated core 2 structure at m/z 864.426 (2+) on CD55” value with CD55 [6] (FIG. 6B) is reported as “significantly reduced”. The “relative amount of monosialylated core 2 structure at m/z 683.839 (2+) on CD55” value in the series on CD55 [6] (FIG. 6B) is reported as “increased”. For the same compound, the “expression levels of CD46 or CD59” value with CD46 and CD59 is listed as “unaffected”. Also, the “expression levels of mCRPs (CD46, CD55, CD59) and target antigens (HLA, SSEA4)” value in [7] is listed as “no change”.

Turning to “shRNA1-3: shRNA1-3 (SEQ ID NO:11) (CCGGGCTGGGAGATAATGTCAGCATCTCGAGATGCTGACATTATCTCCCAGCTTTTTG)”, the “expression of ST3Gal1 RNA compared to sc RNA, siRNA-A or pVoid transfected cells” value in the series on ST3Gal1 mRNA is “reduced”.

With “shRNA1-4: shRNA 1-4 (SEQ ID NO:12) (CCGGGCGGGAGAAGAAGCCCAATAACTCGAGTTATTGGGCTTCTTCTCCCGCTTTTTG)”, the “expression of ST3Gal1 RNA compared to sc RNA, siRNA-A or pVoid transfected cells” value in the series on ST3Gal1 mRNA is reported as “reduced”.

With “siRNA-1: siRNA, antisense AUCUCAGGCCCAUAAGAAGACUCCC (SEQ ID NO: 4), sense GGGAGUCUUCUUAUGGGCCUGAGAU (SEQ ID NO: 5) (listed as RNA, chemistry not given here)”, in the series on ST3Gal1 mRNA, the “expression of ST3Gal1 RNA compared to sc RNA, siRNA-A or pVoid transfected cells” value is “reduced”.

In the case of “siRNA-2: siRNA, antisense UCAUGCUGACAUUAUCUCCCAGCUC (SEQ ID NO: 6), sense GAGCUGGGAGAUAAUGUCAGCAUGA (SEQ ID NO: 7) (listed as RNA, chemistry not given here)”, in the series with ST3Gal1 mRNA, the “expression of ST3Gal1 RNA compared to sc RNA, siRNA-A or pVoid transfected cells” value is reported as “reduced”.

As to “siRNA-3: siRNA, antisense UUGAGAAGAUGACCGAGAGGAUGCC (SEQ ID NO: 8), sense GGCAUCCUCUCGGUCAUCUUCUCAA (SEQ ID NO: 9) (listed as RNA, chemistry not given here)”, in the series with ST3Gal1 mRNA, the “expression of ST3Gal1 RNA compared to sc RNA, siRNA-A or pVoid transfected cells” value is reported as “reduced”.

The values above are taken from patent publication US20180037909A1, “MODIFIED CANCER CELL LINES AND USES THEREOF” (Chang Gung Memorial Hospital, Linkou, priority 2016, published 2018).
